In assay [1] the target is T1, hAR (Homo sapiens, UniProt P10275).
T1 sequence (P10275 1-920): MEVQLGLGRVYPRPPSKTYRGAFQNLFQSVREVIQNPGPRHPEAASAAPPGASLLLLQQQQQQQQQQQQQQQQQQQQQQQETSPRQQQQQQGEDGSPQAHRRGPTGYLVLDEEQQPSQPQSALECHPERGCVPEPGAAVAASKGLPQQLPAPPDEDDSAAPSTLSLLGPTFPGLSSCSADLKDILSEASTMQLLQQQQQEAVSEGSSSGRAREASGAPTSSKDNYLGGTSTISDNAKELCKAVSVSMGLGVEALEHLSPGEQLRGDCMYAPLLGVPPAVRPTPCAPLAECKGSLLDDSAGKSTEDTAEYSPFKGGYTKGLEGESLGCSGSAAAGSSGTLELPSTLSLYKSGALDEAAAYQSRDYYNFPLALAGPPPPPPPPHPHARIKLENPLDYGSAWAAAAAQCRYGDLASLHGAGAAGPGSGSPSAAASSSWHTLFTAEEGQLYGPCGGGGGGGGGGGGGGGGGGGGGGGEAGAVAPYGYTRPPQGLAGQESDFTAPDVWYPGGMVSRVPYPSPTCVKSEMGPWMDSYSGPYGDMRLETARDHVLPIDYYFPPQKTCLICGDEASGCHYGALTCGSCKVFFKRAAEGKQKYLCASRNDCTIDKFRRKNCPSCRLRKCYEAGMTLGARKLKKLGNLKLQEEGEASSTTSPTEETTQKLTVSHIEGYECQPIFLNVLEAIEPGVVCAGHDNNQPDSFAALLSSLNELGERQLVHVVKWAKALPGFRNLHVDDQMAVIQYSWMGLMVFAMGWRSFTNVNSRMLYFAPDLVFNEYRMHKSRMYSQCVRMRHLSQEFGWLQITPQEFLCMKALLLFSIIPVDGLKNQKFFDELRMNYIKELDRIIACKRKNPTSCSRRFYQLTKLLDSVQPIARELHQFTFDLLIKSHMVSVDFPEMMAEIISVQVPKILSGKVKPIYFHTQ
Put plainly: lacZ-based. Type of assay: cell-based.

Assay [2] has as its system AR. Conditions: cited from earlier work.
Assay [3] addresses T2, human androgen receptor (Homo sapiens, UniProt P10275).
T2 sequence (P10275 1-920): T1 sequence (P10275 1-920)
Nature of the assay: new yeast androgen bioassay expressing yEGFP in response to androgens. In kind it is cell-based.

In assay [4] the target is T2, human androgen receptor. In kind it is cell-based. The settings on record: coexposure with 50 nM 5α-dihydrotestosterone; potency compared with flutamide.
[5] abbreviates: β-galactosidase bioassay, relative to 17β-testosterone, NR no response.

Entries after “also recorded” stand apart in the source; their conditions may differ. Like-named read-outs stand apart in the source and are kept apart here.

Consider `C[C@]12CC[C@H]3[C@@H](CCC4=CC(=O)C=C[C@@]43C)[C@@H]1CC[C@@H]2O` [17β-Boldenone], for which the RAP in assay [1] (setting [5]) was determined as 0.2.

For the compound `C[C@]12CC[C@@H]3c4ccc(O)cc4CC[C@H]3[C@@H]1CC[C@@H]2O` [17β-Estradiol], the “androgenic activity in MCRG systems (positive systems out of all)” value (from here on “androgenic activity in MCRG systems”) in assay [2] is on record as “ten out of 11”.

Regarding `C[C@]12C=CC3=C4CCC(=O)C=C4CC[C@H]3[C@@H]1CC[C@@H]2O` [17β-Trenbolone], in assay [1], the midpoint of the response, the EC50, lay at 13 nM. In assay [1] (setting [5]), this compound had an RAP of 0.9.

For `Brc1ccc(Oc2cc(Br)cc(Br)c2)cc1` [BDE-39], in assay [3], the “agonistic response (in words)” value is “None of these four compounds were able to show an agonistic response”. Further, the “antiandrogenic activity (in words)” value in assay [4] is “clearly less antiandrogenic”.

On to `C[C@@H]1C[C@H]2[C@@H]3CCC4=CC(=O)C=C[C@]4(C)[C@@]3(F)[C@@H](O)C[C@]2(C)[C@@]1(O)C(=O)CO` [Dexamethasone], for which the “androgenic activity in MCRG systems” value in assay [2] is given as “three out of four”.

Turning to `C[C@]12CC[C@@H]3c4ccc(O)cc4CC[C@H]3[C@@H]1CCC2=O` [Estrone], the “agonistic response (in words)” value in assay [3] is “no agonistic response; also recorded: negative result”.

In assay [1], `C[C@]1(O)CC[C@H]2[C@@H]3CCC4=CC(=O)CCC4=C3C=C[C@@]21C` [Methyltrienolone] showed an RAP of 3.1.

In the case of `CC(=O)[C@H]1CC[C@H]2[C@@H]3CCC4=CC(=O)CC[C@]4(C)[C@H]3CC[C@]12C` [Progesterone], the “androgenic activity in MCRG systems” value in assay [2] is on record as “seven out of nine”.

In assay [1] (setting [5]), `CC[C@]1(O)CC[C@H]2[C@@H]3CCC4=CC(=O)CCC4=C3C=C[C@@]21CC` [Tetrahydrogestrinone] returned an RAP of 1.0.

What is called EC50 is the concentration at which the effect is half-maximal. A high value points to weaker potency.

The values above are taken from publication PMC2045123 (Analytical and Bioanalytical Chemistry, 2007).
